Earlier results as cited in patent US8729108B2, “Waterborne topical compositions for the delivery of active ingredients such as azelaic acid” (priority 2008, dated 2014).

solubility in cosmetic oils (cosmetic oils): little or no solubility
maximum azelaic acid content of an aqueous solution (water): about 0.24 % by weight (w/w)
Compound: O=C(O)CCCCCCCC(=O)O [Azelaic acid, nonanedioic acid]
